Test results as given in patent publication US9346769B2, “Tetrazolones as inhibitors of fatty acid synthase” (Infinity Pharmaceuticals, Inc., priority 2010, dated 2016).

These compounds were tested against T1, human FASN (Homo sapiens, UniProt P49327) (assay: FASN NADPH Consumption Assay). Conditions: human FASN purified from SKBR3 cells; starred symbols.
T1 construct: was purified from SKBR3 cells using procedures modified from those in Jayakumar et al; endogenous in cells; host or cells: SKBR3 human breast cancer cells (ATCC); Endogenous enzyme purified by ammonium sulfate precipitation and a mono Q column
Format: biochemical
Outline: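 Native human FASN purified from SKBR3 cells (60 nM final) preincubated 30 min at 37 °C with compound (2.4 nM–40 μM, 4% DMSO) in pH 7.0 phosphate buffer with 5 mM DTT. Reaction started with 0.2 mM NADPH, 50 μM butyryl-CoA, 0.5 mM malonyl-CoA; NADPH consumption followed kinetically by fluorescence (ex 340/em 460 nm); IC50 from logistic fit.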

T1 sequence (P49327 whole entry): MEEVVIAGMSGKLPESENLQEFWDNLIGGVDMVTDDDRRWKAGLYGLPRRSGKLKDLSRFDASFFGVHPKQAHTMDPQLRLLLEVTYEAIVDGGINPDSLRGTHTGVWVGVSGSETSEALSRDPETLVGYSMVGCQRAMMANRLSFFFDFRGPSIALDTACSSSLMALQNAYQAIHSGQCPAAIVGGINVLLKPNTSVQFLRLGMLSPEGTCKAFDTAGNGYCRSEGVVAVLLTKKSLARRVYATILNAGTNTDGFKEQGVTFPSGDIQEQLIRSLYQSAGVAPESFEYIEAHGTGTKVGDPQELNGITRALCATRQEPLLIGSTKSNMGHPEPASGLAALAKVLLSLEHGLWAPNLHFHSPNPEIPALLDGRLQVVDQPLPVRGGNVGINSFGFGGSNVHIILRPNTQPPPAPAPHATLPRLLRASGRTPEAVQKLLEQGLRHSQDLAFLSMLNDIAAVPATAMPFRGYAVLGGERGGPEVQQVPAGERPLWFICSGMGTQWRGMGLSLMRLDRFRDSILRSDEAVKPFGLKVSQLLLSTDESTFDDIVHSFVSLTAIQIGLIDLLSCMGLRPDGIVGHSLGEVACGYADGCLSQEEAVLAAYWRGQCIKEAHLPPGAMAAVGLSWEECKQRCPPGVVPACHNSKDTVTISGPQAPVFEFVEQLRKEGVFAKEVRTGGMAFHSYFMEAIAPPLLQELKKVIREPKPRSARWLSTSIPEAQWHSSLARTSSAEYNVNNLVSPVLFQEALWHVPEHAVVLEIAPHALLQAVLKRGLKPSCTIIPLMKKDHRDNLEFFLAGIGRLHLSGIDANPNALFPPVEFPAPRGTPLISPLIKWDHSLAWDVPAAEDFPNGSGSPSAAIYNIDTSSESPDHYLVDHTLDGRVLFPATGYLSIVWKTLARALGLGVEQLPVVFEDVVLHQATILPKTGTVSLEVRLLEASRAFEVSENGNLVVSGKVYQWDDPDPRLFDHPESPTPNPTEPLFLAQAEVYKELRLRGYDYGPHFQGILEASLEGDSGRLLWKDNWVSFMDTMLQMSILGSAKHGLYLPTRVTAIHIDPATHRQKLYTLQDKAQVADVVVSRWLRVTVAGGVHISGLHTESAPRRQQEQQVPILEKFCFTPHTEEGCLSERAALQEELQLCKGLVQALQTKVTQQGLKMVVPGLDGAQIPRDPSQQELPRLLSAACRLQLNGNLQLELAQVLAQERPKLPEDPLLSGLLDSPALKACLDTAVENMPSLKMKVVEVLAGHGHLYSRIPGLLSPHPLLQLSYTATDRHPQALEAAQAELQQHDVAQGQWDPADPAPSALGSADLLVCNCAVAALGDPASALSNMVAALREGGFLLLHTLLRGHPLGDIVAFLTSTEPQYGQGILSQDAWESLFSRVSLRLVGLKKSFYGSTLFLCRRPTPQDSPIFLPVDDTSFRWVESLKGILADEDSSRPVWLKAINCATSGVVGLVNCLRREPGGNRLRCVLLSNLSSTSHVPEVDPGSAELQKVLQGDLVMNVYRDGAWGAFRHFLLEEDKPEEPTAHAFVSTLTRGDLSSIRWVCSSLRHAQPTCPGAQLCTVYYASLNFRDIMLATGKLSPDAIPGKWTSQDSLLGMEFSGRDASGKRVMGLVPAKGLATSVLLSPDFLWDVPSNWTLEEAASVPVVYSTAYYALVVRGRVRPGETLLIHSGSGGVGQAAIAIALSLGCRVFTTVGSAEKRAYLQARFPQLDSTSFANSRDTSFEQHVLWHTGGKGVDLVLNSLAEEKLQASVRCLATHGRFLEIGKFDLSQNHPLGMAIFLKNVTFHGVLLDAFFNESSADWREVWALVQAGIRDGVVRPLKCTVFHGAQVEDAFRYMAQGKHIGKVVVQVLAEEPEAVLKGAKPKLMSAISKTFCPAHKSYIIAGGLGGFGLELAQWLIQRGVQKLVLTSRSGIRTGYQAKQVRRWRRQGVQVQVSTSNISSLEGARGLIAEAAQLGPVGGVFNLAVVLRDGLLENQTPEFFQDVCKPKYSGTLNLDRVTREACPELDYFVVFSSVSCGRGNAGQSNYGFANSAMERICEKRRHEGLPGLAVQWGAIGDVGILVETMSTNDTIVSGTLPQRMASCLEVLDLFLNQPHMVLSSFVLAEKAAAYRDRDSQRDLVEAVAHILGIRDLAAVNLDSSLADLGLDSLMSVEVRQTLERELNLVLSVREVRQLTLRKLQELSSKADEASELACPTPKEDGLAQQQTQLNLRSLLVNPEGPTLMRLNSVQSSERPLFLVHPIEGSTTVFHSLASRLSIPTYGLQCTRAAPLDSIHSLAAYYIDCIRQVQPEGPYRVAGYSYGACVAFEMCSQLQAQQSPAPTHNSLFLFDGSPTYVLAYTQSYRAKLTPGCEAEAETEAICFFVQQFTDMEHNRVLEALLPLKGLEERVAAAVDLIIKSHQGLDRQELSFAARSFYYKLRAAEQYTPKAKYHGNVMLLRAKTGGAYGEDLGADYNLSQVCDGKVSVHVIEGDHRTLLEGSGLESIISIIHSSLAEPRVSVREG

| SMILES | IC50 |
| --- | --- |
| C=CCN(C(=O)n1nnn(-c2ccccc2Oc2ccccc2)c1=O)C1CCN(C(=O)OC(C)(C)C)CC1 | 1 to 10 µM |
| CCOC(=O)N1CCC(N(CC)C(=O)n2nnn(-c3c(Cl)cccc3Cl)c2=O)CC1 | 1 to 10 µM |
| CCN(C(=O)n1nnn(-c2c(Cl)cccc2Cl)c1=O)C1CCN(S(C)(=O)=O)CC1 | 1 to 10 µM |
| CCN(C(=O)n1nnn(-c2c(Cl)cccc2Cl)c1=O)C1CCN(C(C)=O)CC1 | 1 to 10 µM |
| CCN(C(=O)n1nnn(-c2c(Cl)cccc2Cl)c1=O)C1CCCN(C(C)=O)C1 (stereo not drawn) | 1 to 10 µM |
| CCN(C(=O)n1nnn(-c2c(Cl)cccc2Cl)c1=O)C1CCCN(C(=O)OC(C)(C)C)C1 (stereo not drawn) | 1 to 10 µM |
| CCOC(=O)N1CCCC(N(CC)C(=O)n2nnn(-c3c(Cl)cccc3Cl)c2=O)C1 (stereo not drawn) | 1 to 10 µM |
| CCN(C(=O)n1nnn(-c2c(Cl)cccc2Cl)c1=O)C1CCCN(C(=O)Cc2ccccc2)C1 (stereo not drawn) | 1 to 10 µM |
| CCN(C(=O)n1nnn(-c2c(Cl)cccc2Cl)c1=O)C1CCCN(S(C)(=O)=O)C1 (stereo not drawn) | 1 to 10 µM |
| CCN(C(=O)n1nnn(-c2ccccc2)c1=O)C1CCCCC1 | > 10 µM |
| CCN(C(=O)n1nnn(-c2ccccc2SC)c1=O)C1CCCCC1 | 1 to 10 µM |
| CCc1ccccc1-n1nnn(C(=O)N(CC)C2CCCCC2)c1=O | 1 to 10 µM |
| CCN(C(=O)n1nnn(-c2ccccc2I)c1=O)C1CCCCC1 | 1 to 10 µM |
| CCN(C(=O)n1nnn(-c2ccccc2F)c1=O)C1CCCCC1 | 1 to 10 µM |
| CCN(C(=O)n1nnn(-c2ccccc2C(C)(C)C)c1=O)C1CCCCC1 | > 10 µM |
| CCN(C(=O)n1nnn(-c2ccccc2Cl)c1=O)C1CCCCC1 | 1 to 10 µM |
| CCN(C(=O)n1nnn(-c2ccccc2Br)c1=O)C1CCCCC1 | 1 to 10 µM |
| CCN(C(=O)n1nnn(-c2ccccc2C)c1=O)C1CCCCC1 | 1 to 10 µM |
| CCCN(C(=O)n1nnn(-c2ccccc2Cl)c1=O)C1CCCCC1 | 1 to 10 µM |
| CCN(C(=O)n1nnn(-c2c(Cl)cccc2Cl)c1=O)C1CCCCC1 | 1 to 10 µM |
| CS(=O)(=O)NCCCN(C(=O)n1nnn(-c2c(Cl)cccc2Cl)c1=O)C1CCCCC1 | 1 to 10 µM |
| CCN(C(=O)n1nnn(-c2c(Cl)cccc2Cl)c1=O)C1CCC(C(=O)OCc2ccc(OC)cc2)CC1 (stereo not drawn) | > 10 µM |

| SMILES | IC50 |
| --- | --- |
| CCN(C(=O)n1nnn(-c2c(Cl)cccc2Cl)c1=O)C1CCC(C(=O)N2CCOCC2)CC1 (stereo not drawn) | > 10 µM |
| CCN(C(=O)n1nnn(-c2c(Cl)cccc2Cl)c1=O)C1CCCC(C(=O)NCC(N)=O)C1 (stereo not drawn) | 1 to 10 µM |
| CCN(C(=O)n1nnn(-c2c(Cl)cccc2Cl)c1=O)C1CCCC(C(=O)O)C1 (stereo not drawn) | 1 to 10 µM |
| CCN(C(=O)n1nnn(-c2c(Cl)cccc2Cl)c1=O)[C@@H]1CCC[C@@H](C(=O)N2CCOCC2)C1 | 1 to 10 µM |
| CCN(C(=O)n1nnn(-c2c(Cl)cccc2Cl)c1=O)C1CCC(C(=O)NC(C(N)=O)c2ccccc2)CC1 (stereo not drawn) | 1 to 10 µM |
| CCN(C(=O)n1nnn(-c2c(Cl)cccc2Cl)c1=O)C1CCC(C(=O)N2CCN(C)CC2)CC1 (stereo not drawn) | > 10 µM |
| CCNC(=O)NCCCN(C(=O)n1nnn(-c2c(Cl)cccc2Cl)c1=O)C1CCCCC1 | 1 to 10 µM |
| CCN(C(=O)n1nnn(-c2c(Cl)cccc2Cl)c1=O)C1CCC(N(C)C)CC1 (stereo not drawn) | > 10 µM |
| CCN(C(=O)n1nnn(-c2c(C)cccc2Cl)c1=O)C1CCCCC1 | 1 to 10 µM |
| COc1cccc(F)c1-n1nnn(C(=O)N(C2CCCCC2)C2CCCCC2)c1=O | 1 to 10 µM |
| CCN(C(=O)n1nnn(-c2ccc(C(F)(F)F)cc2Cl)c1=O)C1CCCCC1 | > 10 µM |
| CCN(C(=O)n1nnn(-c2ccc(Br)cc2Br)c1=O)C1CCCCC1 | 1 to 10 µM |
| CCN(C(=O)n1nnn(-c2cc(Cl)ccc2Cl)c1=O)C1CCCCC1 | 1 to 10 µM |
| CCN(C(=O)n1nnn(-c2cc(F)ccc2F)c1=O)C1CCCCC1 | 1 to 10 µM |
| CCN(C(=O)n1nnn(-c2cccc(Cl)c2Cl)c1=O)C1CCCCC1 | 1 to 10 µM |
| CCN(C(=O)n1nnn(-c2c(Cl)cc(Cl)cc2Cl)c1=O)C1CCCCC1 | 1 to 10 µM |
| CN(C)N(C(=O)n1nnn(-c2ccccc2Cl)c1=O)C1=CCCCC1 | 1 to 10 µM |
| C/C=C/C/C=C/CCCN(CCC)C(=O)n1nnn(-c2ccccc2Cl)c1=O | 0.25 to 1 µM |
| CCCN(C)C(=O)n1nnn(-c2ccccc2Cl)c1=O | > 10 µM |
| CCCCCCN(C)C(=O)n1nnn(-c2ccccc2Cl)c1=O | 1 to 10 µM |
| CC(C)N(C(=O)n1nnn(-c2ccccc2Cl)c1=O)C(C)C | > 10 µM |
| CCN(C(=O)n1nnn(-c2ccccc2Cl)c1=O)C(C)(C)C | > 10 µM |

The remaining lines, values ahead:

| IC50 | SMILES |
| --- | --- |
| 0.25 to 1 µM | CCN(C(=O)n1nnn(-c2c(Cl)cccc2Cl)c1=O)C1CCN(C(=O)Cc2ccccc2)CC1 |
| 1 to 10 µM | CCN(C(=O)n1nnn(-c2c(Cl)cccc2Cl)c1=O)C1CCN(C(=O)OC(C)(C)C)CC1 |
| 1 to 10 µM | CCN(C(=O)n1nnn(-c2c(Cl)cccc2Cl)c1=O)C1CCN(C(=O)CCC(=O)O)CC1 |
| > 10 µM | CCN(C(=O)n1nnn(-c2c(Cl)cccc2Cl)c1=O)C1CCN(C)CC1 |
| > 10 µM | CN1C2CCC1CC(N(CCc1ccccc1)C(=O)n1nnn(-c3c(Cl)cccc3Cl)c1=O)C2 (stereo not drawn) |
| 1 to 10 µM | CCNC(=O)N1CCCC(N(CC)C(=O)n2nnn(-c3c(Cl)cccc3Cl)c2=O)C1 (stereo not drawn) |
| 1 to 10 µM | CCN(C(=O)n1nnn(-c2c(Cl)cccc2Cl)c1=O)C1CCCN(C(=O)CCC(=O)O)C1 (stereo not drawn) |
| 1 to 10 µM | CCN(C(=O)n1nnn(-c2c(Cl)cccc2Cl)c1=O)C1CCOC(C)(C)C1 (stereo not drawn) |
| > 10 µM | O=C(NC1CCCCC1)n1nnn(-c2ccccc2)c1=O |
| 1 to 10 µM | CCN(C(=O)n1nnn(-c2ccccc2Oc2ccccc2)c1=O)C1CCCCC1 |
| 1 to 10 µM | CCC(C)c1ccccc1-n1nnn(C(=O)N(CC)C2CCCCC2)c1=O (stereo not drawn) |
| > 10 µM | CC(C)N(C(=O)n1nnn(-c2ccccc2Cl)c1=O)C1CCCCC1 |
| 1 to 10 µM | CCN(C(=O)n1nnn(-c2ccccc2OC(F)(F)F)c1=O)C1CCCCC1 |
| 1 to 10 µM | CCN(C(=O)n1nnn(-c2ccccc2C#N)c1=O)C1CCCCC1 |
| 1 to 10 µM | CCN(C(=O)n1nnn(-c2ccccc2OC)c1=O)C1CCCCC1 |
| 1 to 10 µM | CN(C(=O)n1nnn(-c2ccccc2Cl)c1=O)C1CCCCC1 |
| 1 to 10 µM | CCN(C(=O)n1nnn(-c2ccccc2C(C)C)c1=O)C1CCCCC1 |
| 1 to 10 µM | CCN(C(=O)n1nnn(-c2ccc([N+](=O)[O-])cc2)c1=O)C1CCCCC1 |
| 1 to 10 µM | N#CCCN(C(=O)n1nnn(-c2c(Cl)cccc2Cl)c1=O)C1CCCCC1 |
| > 10 µM | CC(C)(C)OC(=O)NCCN(C(=O)n1nnn(-c2c(Cl)cccc2Cl)c1=O)C1CCCCC1 |
| 1 to 10 µM | CCN(C(=O)n1nnn(-c2c(Cl)cccc2Cl)c1=O)C1CCCC(C(=O)N2CCOCC2)C1 (stereo not drawn) |
| 1 to 10 µM | CCN(C(=O)n1nnn(-c2c(Cl)cccc2Cl)c1=O)C1CCCC(C(=O)OCc2ccccc2)C1 (stereo not drawn) |
| 1 to 10 µM | CCN(C(=O)n1nnn(-c2c(Cl)cccc2Cl)c1=O)C1CCCC(C(=O)N2CCN(C)CC2)C1 (stereo not drawn) |
| > 10 µM | CCN(C(=O)n1nnn(-c2c(Cl)cccc2Cl)c1=O)C1CCC(NC(=O)OC(C)(C)C)CC1 (stereo not drawn) |
| 1 to 10 µM | O=C(NCCCN(C(=O)n1nnn(-c2c(Cl)cccc2Cl)c1=O)C1CCCCC1)c1cccnc1 |
| 1 to 10 µM | CCN(C(=O)n1nnn(-c2c(Cl)cccc2Cl)c1=O)C1CCC(C(=O)O)CC1 (stereo not drawn) |
| 1 to 10 µM | CCN(C(=O)n1nnn(-c2c(Cl)cccc2Cl)c1=O)C1CCCC(C(=O)NC)C1 (stereo not drawn) |
| 1 to 10 µM | CC(C)(C)OC(=O)NCCCN(C(=O)n1nnn(-c2c(Cl)cccc2Cl)c1=O)C1CCCCC1 |

| IC50 | SMILES |
| --- | --- |
| 1 to 10 µM | CC(=O)NCCCN(C(=O)n1nnn(-c2c(Cl)cccc2Cl)c1=O)C1CCCCC1 |
| > 10 µM | CC(C)C[C@@H](NC=O)C(=O)NCCCN(C(=O)n1nnn(-c2c(Cl)cccc2Cl)c1=O)C1CCCCC1 |
| 1 to 10 µM | CNC(=O)CN(C(=O)n1nnn(-c2c(Cl)cccc2Cl)c1=O)C1CCCCC1 |
| > 10 µM | CC(=O)NCCN(C(=O)n1nnn(-c2c(Cl)cccc2Cl)c1=O)C1CCCCC1 |
| 1 to 10 µM | CCN(C(=O)n1nnn(-c2c(Cl)cccc2Cl)c1=O)C1CCC(C(=O)NC)CC1 (stereo not drawn) |
| 1 to 10 µM | O=CNCC(=O)NCCCN(C(=O)n1nnn(-c2c(Cl)cccc2Cl)c1=O)C1CCCCC1 |
| > 10 µM | O=C(N(Cc1ccco1)C1CCCCC1)n1nnn(-c2c(Cl)cccc2Cl)c1=O |
| > 10 µM | Cc1nonc1NC(=O)CN(C(=O)n1nnn(-c2c(Cl)cccc2Cl)c1=O)C1CCCCC1 |
| > 10 µM | CCN(C(=O)n1nnn(-c2c(C)cccc2C)c1=O)C1CCCCC1 |
| > 10 µM | CCN(C(=O)n1nnn(-c2c(Cl)cccc2C(F)(F)F)c1=O)C1CCCCC1 |
| > 10 µM | CCN(C(=O)n1nnn(-c2c(C)cccc2C(C)(C)C)c1=O)C1CCCCC1 |
| > 10 µM | CCCCc1ccc(-n2nnn(C(=O)N(CC)C3CCCCC3)c2=O)c(C)c1 |
| 1 to 10 µM | CCN(C(=O)n1nnn(-c2ccc(Cl)cc2Cl)c1=O)C1CCCCC1 |
| > 10 µM | CCN(C(=O)n1nnn(-c2ccc([N+](=O)[O-])cc2Cl)c1=O)C1CCCCC1 |
| 1 to 10 µM | CCN(C(=O)n1nnn(-c2ccc(F)cc2F)c1=O)C1CCCCC1 |
| 1 to 10 µM | CCN(C(=O)n1nnn(-c2cccc3nsnc23)c1=O)C1CCCCC1 |
| > 10 µM | CCN(C(=O)n1nnn(-c2c(C)cc(C)cc2C)c1=O)C1CCCCC1 |
| > 10 µM | CCN(C(=O)n1nnn(-c2ccc(F)c(F)c2F)c1=O)C1CCCCC1 |
| 0.25 to 1 µM | CN(C)N(C(=O)n1nnn(-c2ccccc2F)c1=O)C1=CCCCC1 |
| 0.25 to 1 µM | CN(C)N(C(=O)n1nnn(-c2ccccc2Br)c1=O)C1=CCCCC1 |
| 1 to 10 µM | CN(C)N(C(=O)n1nnn(-c2cccc(Cl)c2)c1=O)C1=CCCCC1 |
| > 10 µM | CCNC(=O)n1nnn(-c2ccccc2)c1=O |
| 0.25 to 1 µM | CCCCCCCCCCCCN(C)C(=O)n1nnn(-c2ccccc2Cl)c1=O |
| 1 to 10 µM | CCN(CC)C(=O)n1nnn(-c2ccccc2Cl)c1=O |
| 1 to 10 µM | C/C=C/C/C=C/CCCN(C)C(=O)n1nnn(-c2ccccc2Cl)c1=O |
| > 10 µM | CCN(C)C(=O)n1nnn(-c2ccccc2Cl)c1=O |
| 1 to 10 µM | CCN(CCOC(=O)[C@H](CC(C)C)NC=O)C(=O)n1nnn(-c2c(Cl)cccc2Cl)c1=O |
